Literature values in US20040116514A1, “Compositions for preventing human cancer and method of preventing human cancer” (priority 2002, published 2004).

System: humans
Settings: β-carotene alone administered in large quantities to humans (Omenn et al., 1996)

For `CC1=C(/C=C/C(C)=C/C=C/C(C)=C/C=C/C=C(C)/C=C/C=C(C)/C=C/C2=C(C)CCCC2(C)C)C(C)(C)CCC1` [β-carotene], the “incidence rate of pulmonary cancer” value is listed as “actually rises”.
